One experiment addresses T1, E. Coli RecA protein (Escherichia coli, UniProt P0A7G6).
T1 construct: purchased New England Biolabs
Put plainly: RecA ATPase activity, in vitro luciferase assay. As to conditions: luciferase assay screen, FIG. 14. The class given is biochemical. As for the experimental part: The assay measures the amount of ATPase (adenosine triphosphate (ATP)-adenosine diphosphate (ADP)) activity catalyzed by E. Coli RecA protein. In the assay, recA is incubated in reaction buffer with DNA, ATP and compounds of interest for a measured amount of time. The quantity of ATP remaining after the RecA reaction is quantitated using a subsequent luciferase assay. […] Details of the assay are provided below.
Materials. Kingase glo plus, adenosine triphosphate (ATP), Adenosine 5′-O-(3-thiotriphosphate), and 384 well plates, white were obtained from Fisher; and M13 mp18 Single-stranded DNA, RecA Protein and T4 Polynucleotide Kinase Reaction Buffer=PNK were obtained from New England Biolabs. PNK contained 70 mM Tris-CL pH 7.5, 10 mM MgCl2 and 5 mM DTT.
Assay Procedure. Final reaction mixture contains: 0.5 μL of M13 single stranded DNA (250 μg/mL); 1.0 μL of 10×PHK buffer; 0.25 μL of RecA (2 mg/mL); 0.25 μL of 1 mM ATP; 0.25 μL of test compound in DMSO; and […] of H2O.
Test compounds are incubated at room temperature in the presence of RecA protein and DNA prior to addition of ATP. This can be achieved by the preparation of two mixes, as indicated below. Desirably, both a no-DNA and a DNA/DMSO-only (i.e., no test compound) control were included.
The following steps are then performed: (1) Add 7.75 μL of mix 1 to the well of a 384 well plate; (2) Add 0.5 μL of the compound of interest; (3) Incubate at room temperature for 5 minutes; (4) Add 2.5 μL of the ATP mix. Incubate at room temperature for 30 minutes; (5) Add 12.5 μL of Promega Kinase glo plus; (6) Incubate at room temperature for 10 minutes or more; and (7) Measure luminescence of the reaction.
Tested compounds were obtained from Boston University (1205 compounds from CMLD diversity library, available from Dr. Scott Schauss), IndoFine (66 compounds based on flavone structure), ChemdiV (48 compounds known to be ATPase inhibitors and 720 compounds structurally related to CB101 (described, for example, in U.S. Ser. No. 60/662,038), and Asinex. Five (5) tested compounds were bisfiavones and 28 were predicted, based on structural modeling (see, for example, Example 31) to dock with Rec A. Many of the compounds are lipophilic, natural-product-like compounds. Others are flavones, bisflavones, flavonoids, coumarins, and/or heterocyclic compounds.
Percent inhibition is calculated according to the following equation: […]

The next experiment deals with wild type E. coli. In words: Growth of wild type E. coli in the presence of quinolone (OD600). Conditions: 0.1 μg/mL of Cipro (sublethal concentration). It is filed as cell-based. From the text: Each deletion strain was constructed by replacing the chromosomal copy of the relevant gene in a wild type E. coli strain (K-12) with a selectable antibiotic resistance gene, essentially as described, to create a precise gene deletion (Datsenko, K. A. and Wanner, B. L., “One-step inactivation of chromosomal genes in Escherichia coli K-12 using PCR products”, Proc Natl Acad Sci USA, 97, 6640-6645, […]); Baba, T., Ara, T., Okumura, Y., iki Hasegawa, M., Takai, Y., Baba, M., Oshima, T., Tomita, M., Wanner, B. and Mori, H. (2003) Systematic construction of single gene deletion mutants in Escherichia coli K-12 (in preparation) and see also the web site at ecoli.aist-nara.ac.jp/gb5/Resources/deletion/deletion.html).
For each mutant, the ratio of growth of the mutant in the presence of a sublethal concentration of quinolone to growth of the mutant in the absence of quinolone was calculated after 12 hours of growth at 37° C., based on OD600 measurements. […]

The test system of another experiment is S. aureus cells. In words: Mutation/resistance assay, resistance to ciprofloxacin. The class given is cell-based. As to conditions: 4×MIC ciprofloxacin with (+) or without (−) 25 μg/mL hinokiflavone. As for the experimental part:
This assay measures the rate at which mutant cells arise in the presence of an antibiotic agent. Cells are grown in the presence of antibiotic agent at a concentration above (generally well above, e.g., 4× or 8×) its MIC, and further in the presence or absence of a test agent (that may inhibit or enhance mutation).
Every 24 hours, an aliquot is removed from the culture and is diluted so that the antibiotic agent is no longer present at a concentration above its MIC (e.g., so that the antibiotic agent is present at 0.5×MIC or less). These aliquoted samples are then assayed to determine whether they can grow in the presence of the antibiotic agent. Specifically, when growth is observed in the presence of antibiotic agent at a concentration that is 4×MIC, then resistance is said to have developed. Test compounds can therefore be assayed to assess whether or not they can reduce the incidence of resistance (e.g., by inhibiting mutation).
These aliquoted samples were then assayed to determine whether they can grow in the presence of ciprofloxacin. […]

The test system of a further experiment is E. coli MG1655. In words: Hydroxyl radical formation (HPF dye, flow cytometry) in E. coli. The class given is cell-based. Conditions: E. coli; 250 ng/mL norfloxacin, 5 μg/mL ampicillin, 5 μg/mL kanamycin; bacteriostatic drugs; 3 hours after addition. The procedure:
(§1) Growth Conditions. In the experiments, the growth and survival of untreated exponential phase E. coli, or S. aureus, were compared to cultured treated with antibiotics at the above concentrations. E. coli cultures were treated with norfloxacin, kanamycin, ampicillin, rifamycin SV, chloramphenical, tetracycline, erythromycin, or spectinomycin, where appropriate, S. aureus cultures were treated with norfloxacin, vancomycin or chloramphenical, where appropriate.
(§2) Hydroxyl radical and DNA damage sensor experiments using the flow cytometer. To monitor the occurrence of DNA damage, the engineered DNA damage sensor was used, which responds to auto-cleavage of LexA by activating expression of gfpmut3b. All the drug treatments and the no-drug controls were collected with both the kanamycin- and ampicillin-resistant version of the plasmid, with the exception of the ampicillin treatment (kanamycin plasmid only) and the kanamycin treatment (ampicillin plasmid only). All data were collected using a Becton Dickinson FACSCalibur flow cytometer (Becton Dickinson, San Jose, Calif.) with a 488-nm argon laser and a 515- to 545-nm emission filter (FL1) at low flow rate. The following PMT voltage settings were used: E00 (FSC), 360 (SSC) and 700 (FL1). To detect hydroxyl radical formation, the fluorescent reporter dye, 3′-(p-hydroxyphenyl) fluorescein (HPF, Invitrogen, Carlsbad, Calif.) was used at a concentration of 5 μM (1:1000) dilution), which is oxidized by hydroxyl radicals with high specificity. The following PMT voltage settings were used: E00 (FSC), 360 (SSC) and 825 (FL 1). Calibrite beads (Becton Dickinson) were used for instrument calibration.
Flow data were processed and analyzed with MATLAB (MathWorks, Natick, Mass.) to construct figures. At least 50,000 cells were collected for each sample. In all experiments, cells were grown as described above. Samples were taken immediately before addition of drug (time zero), then every hour for 3 hours. At each timepoint, approximately […] were collected, washed once and resuspended in filtered 1×PBS, pH 7.2 (Fisher Scientific), and fluorescence was measured on the flow cytometer.
In the present study, the Applicants chose to investigate whether hydroxyl radical formation also contributes to antibiotic-induced cell death in bacteria. Using the dye hydroxyphenyl fluorescein, HPF, which is oxidized by hydroxyl radicals with high specificity, hydroxyl radical formation was first observed over a range of hydrogen peroxide concentrations known to induce hydroxyl radicals through the reduction of hydrogen peroxide by ferrous iron. In this manner, it was possible to establish the scale of hydroxyl radical formation detectable using this dye via flow cytometry.

For experiment [1], the system named is wild-type strain of S. aureus. Put plainly: Hydroxyl radical formation (HPF dye, flow cytometry) in S. aureus. The class given is cell-based. As for the experimental part: For work with S. aureus, a Staphylococcus aureus subspecies aureus Rosenback strain was used that was obtained from ATCC (29740).
as §1, §2
On the technique in general: In flow cytometry, cells or beads pass a laser one at a time.

The next experiment deals with E. coli H+ATPase (Escherichia coli, UniProt P0AB98+P68699). As to conditions: cited from earlier work.

T1 sequence (P0A7G6 2-353): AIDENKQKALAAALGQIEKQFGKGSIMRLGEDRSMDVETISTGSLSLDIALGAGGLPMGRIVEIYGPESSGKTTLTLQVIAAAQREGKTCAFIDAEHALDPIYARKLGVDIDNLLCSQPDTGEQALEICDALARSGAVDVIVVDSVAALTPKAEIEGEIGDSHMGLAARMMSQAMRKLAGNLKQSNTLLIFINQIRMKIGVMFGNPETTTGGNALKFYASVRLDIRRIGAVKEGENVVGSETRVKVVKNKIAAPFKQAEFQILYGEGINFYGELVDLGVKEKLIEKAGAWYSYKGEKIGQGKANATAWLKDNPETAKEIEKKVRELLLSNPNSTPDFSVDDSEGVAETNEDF

Turning to `O=c1c(O)c(-c2ccc(O)cc2)oc2cc(O)ccc12` [3,7,4′-trihydroxyflavone], the “activity as inhibitor of RecA ATPase (in words)” value (shortened to “activity as inhibitor”) at E. Coli RecA protein is reported as “particularly active”.
Consider `O=c1cc(-c2ccc(O)cc2)oc2cc(O)c(O)c(O)c12` [6-hydroxy-apigenin], for which, on E. Coli RecA protein, the “activity as inhibitor” value was “particularly active”.
Regarding `O=C(O)c1cn(C2CC2)c2cc(N3CCNCC3)c(F)cc2c1=O` [Cipro, ciprofloxacin], the “growth of wild type E. coli in the presence of Cipro” value with wild type E. coli is “able to grow”. The “Number of Wells in which Growth Observed in Presence of Ciprofloxacin at 4x MIC” value is 0 with S. aureus cells (culture grown 0 days); 1 in the experiment with S. aureus cells (culture grown 1 day); 2 in the experiment on S. aureus cells (culture grown 5 days); 2 with S. aureus cells (culture grown 6 days); 3 with S. aureus cells (culture grown 7 days); 11 in the experiment with S. aureus cells (culture grown 10 days).
Consider `O=c1cc(-c2ccc(O)cc2)oc2cc(O[C@@H]3O[C@H](CO)[C@@H](O)[C@H](O)[C@H]3O)cc(O)c12` [apigenin-7-O-glucoside], for which, on E. Coli RecA protein, the “activity as inhibitor” value is on record as “particularly active”.
In the case of `O=c1cc(-c2ccc(O)cc2)oc2cc(O)cc(O)c12` [apigenin], the “activity as inhibitor” value on E. Coli RecA protein is listed as “particularly active”.
Consider `O=C(N[C@H](CO)[C@H](O)c1ccc([N+](=O)[O-])cc1)C(Cl)Cl` [chloramphenicol], for which the hydroxyl radical formation result with E. coli MG1655 is recorded as “did not stimulate hydroxyl radical production”; in experiment [1] (norfloxacin, chloramphenical), “hydroxyl formation was not observed”.
Turning to `CC[C@H]1OC(=O)[C@H](C)[C@@H](O[C@H]2C[C@@](C)(OC)[C@@H](O)[C@H](C)O2)[C@H](C)[C@@H](O[C@@H]2O[C@H](C)C[C@H](N(C)C)[C@H]2O)[C@](C)(O)C[C@@H](C)C(=O)[C@H](C)[C@@H](O)[C@]1(C)O` [erythromycin], the hydroxyl radical formation entry in the experiment on E. coli MG1655 is given as “did not stimulate hydroxyl radical production”.
For the molecule `O=c1c(O)c(-c2ccc(O)c(O)c2)oc2cc(O)ccc12` [fisetin], the “activity as inhibitor” value on E. Coli RecA protein is recorded as “particularly active”.
Same read-out and setting: for `COc1cc(-c2oc3cc(O)cc(O)c3c(=O)c2O)ccc1O` [isorhamnetin] the value was “particularly active”.
In the case of `O=c1c(O)c(-c2ccc(O)cc2)oc2cc(O)cc(O)c12` [kaempferol], the “activity as inhibitor” value on E. Coli RecA protein was “particularly active”.
On the same count and under the same terms, for `O=C(c1ccc(O)c(O)c1)c1c(O)cc(O)cc1O` [maclurin] the value was “particularly active”; for `O=c1c(O)c(-c2ccc(O)cc2O)oc2cc(O)cc(O)c12` [morin], “particularly active”.
As for `CC[C@H]1/C=C/C=C/C[C@@H](C)[C@H](O)[C@@](C)(O)C(=O)[C@@H](C)[C@H](O)[C@@H](C)C(=O)[C@@H](C)[C@H](O)[C@@H](C)/C=C/C(=O)O[C@@H]2[C@H](C)[C@H](CC1)O[C@]1(CC[C@H](C)[C@H](C[C@@H](C)O)O1)[C@H]2C` [oligomycin], the “inhibition of ATP-driven proton transport and ATP hydrolysis” value on E. coli H+ATPase is given as “weakly inhibited”.
`O=c1c(O)c(-c2ccc(O)c(O)c2)oc2cc(O)c(O)c(O)c12` [quercetagetin]: the “activity as inhibitor” value at E. Coli RecA protein is recorded as “particularly active”.
Regarding `O.O.O=c1c(O)c(-c2ccc(O)c(O)c2)oc2cc(O)cc(O)c12` [quercetin dihydrate], the “activity as inhibitor” value at E. Coli RecA protein was “particularly active”.
As to `CO[C@H]1/C=C/O[C@@]2(C)Oc3c(C)c([O-])c4c(O)c(cc(O)c4c3C2=O)NC(=O)/C(C)=C\C=C\[C@H](C)[C@H](O)[C@@H](C)[C@@H](O)[C@@H](C)[C@H](OC(C)=O)[C@@H]1C.[Na+]` [rifamycin SV], the hydroxyl radical formation entry in the experiment on E. coli MG1655 was “did not stimulate hydroxyl radical production”.
On to `O=c1c(O)cc([C@H]2Oc3cc(O)cc(O)c3C[C@H]2O)cc2c([C@H]3Oc4cc(O)cc(O)c4C[C@H]3O)cc(O)c(O)c12` [theaflavin], for which, at E. Coli RecA protein, the “activity as inhibitor” value is given as “particularly active”.
On to `CN[C@H](CC(C)C)C(=O)N[C@H]1C(=O)N[C@@H](CC(N)=O)C(=O)N[C@H]2C(=O)N[C@H]3C(=O)N[C@H](C(=O)N[C@H](C(=O)O)c4cc(O)cc(O)c4-c4cc3ccc4O)[C@H](O)c3ccc(c(Cl)c3)Oc3cc2cc(c3O[C@@H]2O[C@H](CO)[C@@H](O)[C@H](O)[C@H]2O[C@H]2C[C@](C)(N)[C@H](O)[C@H](C)O2)Oc2ccc(cc2Cl)[C@H]1O` [vancomycin], for which the hydroxyl radical formation entry was “increase in hydroxyl radical production” in experiment [1] (lethal concentration (5 μg/mL)) and “hydroxyl formation was not observed” in experiment [1] (sub-lethal concentration (1 μg/mL)).

The record behind these values is US20090264342A1, “COMPOSITIONS AND METHODS FOR ANTIBIOTIC POTENTIATION AND DRUG DISCOVERY” (priority 2006, published 2009).
